Data taken from US20180161366A1, “METHODS OF OBTAINING MONONUCLEAR BLOOD CELLS AND USES THEREOF” (Biokine Therapeutics Ltd., priority 2015, published 2018).
Where “and” joins values, the source holds several entries; their conditions need not be identical. Equal values may be shown once. Read-outs that look alike come from different tables or passages of the source. Non-standard residues stand in square brackets, D forms with d. *: point of attachment. Benzoyl(4-F) = O=C(c1ccc(F)cc1)*; Cit = NC(=O)NCCC[C@H](N)C(=O)O

Assays:
C57BL mice = experiment: Number of CD3+ T cells and B220+ B cells in spleen and peripheral lymph nodes of mice (FIG. 4); format: in vivo, mouse; details: 5 mg/kg
Procedure: FIG. 4 are graphs presenting the number of CD3+ T cells and B220+ B cells in spleen and peripheral lymph nodes (PLN) of C57BL mice prior (denoted as control) and following administration of 5 mg/kg BL-8040, as determined by flow cytometry.
(§1) Flow cytometry—Cells (100 μl) were stained for 30 minutes in 0.1 ml FACS buffer with fluorescence antibodies directed against Human CD3, CD19, CD56, CD4, CD8, CCR7, CD83, lin-cocktail, CD11c, CD45RA, CD25, /Foxp3+, CD16, CD34, CD38 CD105 or matched isotype controls and mouse CD3, and B220 all from eBioscience San Diego, Calif. 92121 USA. Following staining the cells were washed with FACS buffer and analyzed by flow cytometry (5 μl per sample) using the FACS Caliber Flow Cytometer (BD Biosciences). Data was analyzed using software from CellQuest (version 3.3; BD Biosciences). Cells were first gated according to the forward scatter and side scatter parameters to exclude dead cells and the number and percent of each cell population (e.g. HSPCs, T cells, B cells, NK cells, NKT cells and DCs) was analyzed.

healthy subjects [1] = format: in vivo; details: for Mean CD34+ count (HSPC): four hours post first administration, baseline 5.8/μL, placebo 8; for Mean count of CD34+ HSPC: four hours post second administration, placebo 9
Procedure: (§2) White blood cell count—Blood count assays were performed using Beckman-Coulter analyzers (GENS,750,000).
as §1
The first part of the study was a randomized, double-blind, placebo-controlled dose escalation. […] After obtaining informed consent, BL-8040 was administered subcutaneously (SC) once daily on 2 consecutive days at a dose of 0.5, 0.75 or 1 mg/kg.

mice = details: single injection; cited from earlier work
[2] = system: myeloid leukemia, hematopoietic tumors and non-small cell lung cancer; details: cited from earlier work
CXCR4 receptor = CXCR4 receptor (Homo sapiens, UniProt P61073); details: cited from earlier work
C57BL/6 mice = experiment: BL8040-induced mobilization of T cell subsets in naive mice or mice bearing pancreatic or melanoma cancer; format: in vivo; details: 400 μg/mouse SC
Procedure: Six-to 8-week-old female or male C57BL/6 were purchased from Harlan laboratories. Mice were maintained and all animal experiments were conducted according to the protocols approved by the institutional animal care of the Hebrew university.
Female C57BL/6 mice were inoculated subcutaneously at the right flank with 1× 10^6 B16F10 cells in 0.1 mL PBS. When tumors reached 90 to 150 mm^2 in size (after two weeks), mice were treated with BL-8040, according to the below regimen.
1.5×10^6 Livmet cells/10 μl PBS and 10 μl Matrigel (BD Biosciences) were injected into the pancreas of male C57BL/6 mice. Mice were treated with BL8040, 3 weeks after the injection.
BL8040 (400 μg/mouse dissolved in phosphate-buffered saline) was administered once by subcutaneous injection and 2 h later the blood was collected into tube with heparin.
Fluorescent-activated cell sorting analysis was performed on whole blood (day 0) and expanded cells (day 10).
Whole blood was treated with red blood cell lysis solution (0 155 M NH4Cl, 0.01 M KHCO3, 0.01 mmol/l EDTA, pH 7.4) in order to lyse the erythrocytes. Isolated cells were washed with PBS, re-suspended with 0.1 ml of PBS and stained with fluorescent antibodies directed against specific surface markers.
Cells were incubated with mobs: CD8-PE, CD4-APC, CD3-FITC, CD25-PE-Cy7, CD69-PerCP, CD44-PE-Cy7, CD137-PE-Cy7, CD279-FITC, CD62L-FITC and CD223-FITC (eBioscience).

healthy subjects [3] = experiment: Open label single injection of BL-8040 followed by leukapheresis: composition of collected graft and kinetics of WBC, ImDC and T cells; format: in vivo, human
Procedure: (§3) FIG. 1 is a graph illustrating kinetic analysis of the effect of BL-8040 administration on mobilization of white blood cells (WBC) to the peripheral blood. The figure presents a time course of total WBC in the peripheral blood of subjects in response to a single SC administration of 1 mg/kg BL-8040 as determined by flow cytometry.
as §3, with “FIG. 2” for “FIG. 1”, “of immature dendritic” for “of white blood”, “cells (ImDC)” for “cells (WBC)”, “of ImDC” for “of total WBC”
as §3, with “FIG. 3” for “FIG. 1”, “of CD3+ T” for “of white blood”, “cells” for “cells (WBC)”, “of CD3+ T” for “of total WBC”
Leukapheresis—The leukapheresis procedure was commenced approximately 4 hours (±1 hour) post BL-8040 injection. Eighteen (18) Liter apheresis was collected at a Bone Marrow Transplant unit using the Spectra Optia® Apheresis System.
as §2, §1
The second part of the study was an open label test. 8 healthy subjects received a single injection of BL-8040 (1 mg/kg) and 3-4 hours later were subjected to a standard leukapheresis (18 L) procedure. The composition of the collected graft was tested for the number of WBCs per kg, number of CD34+ HSPC per kg and number and type of T cells, B cells, NK cells and dendritic cells (DC) per kg.

[4] = peripheral blood, 0.5-1 mg/kg SC

CXCR4 receptor, sequence (P61073 whole entry): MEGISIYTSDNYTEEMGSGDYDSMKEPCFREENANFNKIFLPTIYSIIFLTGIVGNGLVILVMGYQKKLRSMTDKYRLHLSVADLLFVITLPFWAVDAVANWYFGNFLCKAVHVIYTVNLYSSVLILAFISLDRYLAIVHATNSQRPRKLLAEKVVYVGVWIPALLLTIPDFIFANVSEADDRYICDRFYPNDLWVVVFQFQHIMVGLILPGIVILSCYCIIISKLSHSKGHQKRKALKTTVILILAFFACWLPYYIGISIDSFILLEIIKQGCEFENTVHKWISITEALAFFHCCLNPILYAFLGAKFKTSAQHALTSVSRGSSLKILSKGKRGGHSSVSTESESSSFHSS

4F-benzoyl-Arg-Arg-Nal-Cys-Tyr-Cit-Lys-DLys-Pro-Tyr-Arg-Cit-Cys-Arg-NH2 ({Benzoyl(4-F)}-RR[Nal]CY[Cit]K[dK]PYR[Cit]CR-NH2; not fully specified; printed as 4F-benzoyl-Arg-Arg-Nal-Cys-Tyr-Cit-Lys-DLys-Pro-Tyr-Arg-Cit-Cys-Arg-NH2; also: cyclised, bridge not given here) [BL-8040]
source of mobilized T cells (spleen and peripheral lymph nodes counts) (C57BL mice): T cells are mobilized from the lymph node into the blood | mean WBC count (healthy subjects [1]; 4 hr post BL-8040 administration, baseline 6.3): 2.97e+10 L⁻¹ | Mean CD34+ count (HSPC) (healthy subjects [1]; 0.5 mg/kg): 37 cells/μL | Mean CD34+ count (HSPC) (healthy subjects [1]; 0.75 mg/kg): 31 cells/μL | Mean CD34+ count (HSPC) (healthy subjects [1]; 1 mg/kg): 35 cells/μL | Mean count of CD34+ HSPC (healthy subjects [1]; 0.5 mg/kg): 38 cells/μL | Mean count of CD34+ HSPC (healthy subjects [1]; 0.75 mg/kg): 46 cells/μL | Mean count of CD34+ HSPC (healthy subjects [1]; 1 mg/kg): 58 cells/μL | safety and tolerability (healthy subjects [1]; healthy subjects, SC once daily on 2 consecutive days, all doses tested (0.5-1 mg/kg)): safe and well tolerated | primary treatment related adverse effects (healthy subjects [1]; healthy subjects, SC, 0.5-1 mg/kg): mild to moderate transient injection site and systemic reactions | mobilization of MSC and HPC colony forming cells (healthy subjects [1]; [4]): rapid mobilization | mobilization of T, B and NK cells (healthy subjects [1]; [4]): substantial mobilization | duration of CXCR4 receptor occupancy and pharmacodynamic effect (healthy subjects [1]; post dosing): ≥ 24 h | mobilization of long term repopulating stem cells (mice): mobilized long term repopulating stem cells sufficient for transplantation | toxicity against tumors [2]: toxic against several tumors | binding to the CXCR4 receptor (CXCR4 receptor): high affinity and long receptor occupancy | CD69+ CD25+ activated T cells in collected cells (C57BL/6 mice; cancerous mice vs naive mice, FIG. 6B): more CD69+ CD25+ activated T cells | mobilization of CD4 and CD8 cells (C57BL/6 mice; tumor bearing mice vs non injected or naive mice, blood 2 h later, FIG. 6A): increased mobilization of both CD4 and CD8 cells | B cells (CD19+), % of graft (healthy subjects [3]; 3.5-8 hours following 1 mg/kg): 13.1% | B cells (CD19+), median (healthy subjects [3]; 3.5-8 hours following 1 mg/kg): 2.03 × 10^8/Kg and 2.03 (0.32-2.6) × 10^8/Kg | Central memory CD4 T cells (CD3+/CD4+ CD45RA−/CCR7+), % of CD4+ cells (healthy subjects [3]; 3.5-8 hours following 1 mg/kg): 37.99% | Central memory CD8 T cells (CD3+/CD8+ CD45RA−/CCR7+), % of CD8 cells (healthy subjects [3]; 3.5-8 hours following 1 mg/kg): 33.1% | Cytotoxic T cells (CD3+CD8+), % of graft (healthy subjects [3]; 3.5-8 hours following 1 mg/kg): 22.5% | Cytotoxic T cells (CD3+CD8+), median (healthy subjects [3]; 3.5-8 hours following 1 mg/kg): 2.89 × 10^8/Kg and 2.89 (1.7-4.9) × 10^8/Kg | Effector CD4 T cells (CD3+/CD4+ CD45RA+/CCR7−), % of CD4+ cells (healthy subjects [3]; 3.5-8 hours following 1 mg/kg): 6.24% | Effector CD8 T cells (CD3+/CD8+ CD45RA+/CCR7−), % of CD8 cells (healthy subjects [3]; 3.5-8 hours following 1 mg/kg): 1.09% | Effector memory CD4 T cells (CD3+/CD4+ CD45RA−/CCR7−), % of CD4+ cells (healthy subjects [3]; 3.5-8 hours following 1 mg/kg): 21.19% | Effector memory CD8 T cells (CD3+/CD8+ CD45RA−/CCR7−), % of CD8 cells (healthy subjects [3]; 3.5-8 hours following 1 mg/kg): 1.94% | HSPC (CD34+), % of graft (healthy subjects [3]; 3.5-8 hours following 1 mg/kg): 0.78% | HSPC (CD34+), median (healthy subjects [3]; 3.5-8 hours following 1 mg/kg): 11.89 × 10^6/Kg and 11.89 (5.1-15.0) × 10^6/Kg | Immature DCs (lin-CD11c+CD83−), % of graft (healthy subjects [3]; 3.5-8 hours following 1 mg/kg): 0.95% | Immature DCs (lin-CD11c+CD83−), median (healthy subjects [3]; 3.5-8 hours following 1 mg/kg): 1.16e+07 kg⁻¹ | NK cells (CD3−CD56+), % of graft (healthy subjects [3]; 3.5-8 hours following 1 mg/kg): 4.76% | NK cells (CD3−CD56+), median (healthy subjects [3]; 3.5-8 hours following 1 mg/kg): 0.53 × 10^8/Kg and 0.53 (0.15-1.55) × 10^8/Kg | NKT cells (CD3+CD56+), % of graft (healthy subjects [3]; 3.5-8 hours following 1 mg/kg): 1.2% | NKT cells (CD3+CD56+), median (healthy subjects [3]; 3.5-8 hours following 1 mg/kg): 9.8e+06 kg⁻¹ | Naïve CD4 T cells (CD3+/CD4+ CD45RA+/CCR7+), % of CD4+ cells (healthy subjects [3]; 3.5-8 hours following 1 mg/kg): 34.61% | Naïve CD8 T cells (CD3+/CD8+ CD45RA+/CCR7+), % of CD8 cells (healthy subjects [3]; 3.5-8 hours following 1 mg/kg): 63.89% | Regulatory T cells (CD4+CD25+Foxp3+), % of graft (healthy subjects [3]; 3.5-8 hours following 1 mg/kg): 1.28% | Regulatory T cells (CD4+CD25+Foxp3+), median (healthy subjects [3]; 3.5-8 hours following 1 mg/kg): 1.61e+07 kg⁻¹ | T cells (CD3+), % of graft (healthy subjects [3]; 3.5-8 hours following 1 mg/kg): 48.08% | T cells (CD3+), median (healthy subjects [3]; 3.5-8 hours following 1 mg/kg): 7.32 × 10^8/Kg and 7.32 (4.0-8.5) × 10^8/Kg | T helper cells (CD3+CD4+), % of graft (healthy subjects [3]; 3.5-8 hours following 1 mg/kg): 21.7% | T helper cells (CD3+CD4+), median (healthy subjects [3]; 3.5-8 hours following 1 mg/kg): 3.3 × 10^8/Kg and 3.3 (1.44-3.9) × 10^8/Kg | number of T cells in the periphery at 24 hours (healthy subjects [3]; 24 hours following administration, FIG. 3): remains high | time at which number of T cells in the periphery started to decline (healthy subjects [3]; following administration of BL-8040): 48 h | Fold Difference (BL-8040/AMD3100), B cells CD19 (healthy subjects [3]; ratio of medians): 2.00 | Fold Difference (BL-8040/AMD3100), Cytotoxic T cells CD3+CD8+ (healthy subjects [3]; ratio of medians): 2.22 | Fold Difference (BL-8040/AMD3100), HSPC CD34+ (healthy subjects [3]; ratio of medians): 4.10 | Fold Difference (BL-8040/AMD3100), NK cells CD3−CD56+ (healthy subjects [3]; ratio of medians): 1.77 | Fold Difference (BL-8040/AMD3100), T cells CD3+ (healthy subjects [3]; ratio of medians): 1.59 | Fold Difference (BL-8040/AMD3100), T helper cells CD3+CD4+ (healthy subjects [3]; ratio of medians): 1.03 | Fold Difference (BL-8040/G-CSF), Cytotoxic T cells CD3+CD8+ (healthy subjects [3]; ratio of medians): 7.23 | Fold Difference (BL-8040/G-CSF), HSPC CD34+ (healthy subjects [3]; ratio of medians): 2.83 | Fold Difference (BL-8040/G-CSF), NK cells CD3−CD56+ (healthy subjects [3]; ratio of medians): 2.65 | Fold Difference (BL-8040/G-CSF), T cells CD3+ (healthy subjects [3]; ratio of medians): 5.63 | Fold Difference (BL-8040/G-CSF), T helper cells CD3+CD4+ (healthy subjects [3]; ratio of medians): 3 | increase in the total number of WBC (healthy subjects [3]; single 1 mg/kg SC, FIG. 1): 5-7 fold | time within which mobilization of DCs and T cells occurs (healthy subjects [3]; single administration, FIGS. 2-3): 3 to 4 h
